The values that follow come from patent publication US20120115852A1, “HETEROCYCLIC COMPOUNDS AS AUTOTAXIN INHIBITORS” (Merck Patent Gesellschaft Mit Beschrankter Haftung, priority 2009, published 2012).

By IC50 is commonly meant the concentration at which inhibition is half-maximal.

In the experiment the target is T1, recombinant autotaxin (Homo sapiens, UniProt Q13822).
T1 construct: made in house; host or cells: Hi5 insect cells (baculovirus)
The experiment in a line: Autotaxin test (enzyme test), Amplex Red fluorescence with LPC substrate. The experiment is classed as biochemical. The settings on record: autotaxin inhibition (enzyme test); for remaining activity at 10 µM: 10 μM compound, read-out: % Control at 10 μM. The protocol: Autotaxin Inhibition (Enzyme Test)
Autotaxin Test (Enzyme Test)
The autotaxin activity is measured indirectly using Amplex Red reagent. Amplex Red is measured here as fluorogenic indicator for the H2O2 formed. In detail, autotaxin converts the substrate lysophosphatidylcholine (LPC) into phosphocholine and lysophosphatidylic acid (LPA). After this reaction, the phosphocholine is reacted with alkaline phosphatase to give inorganic phosphate and choline. In the next step, choline is oxidised by choline oxidase to give betaine, with formation of H2O2. H2O2 reacts with Amplex Red reagent in the presence of peroxidase (horseradish peroxidase) in a 1:1 stoichiometry and forms the highly fluorescent resorufin. The fluorescence is measured in a reaction-dependent kinetic mode in order that fluorescent signals from possible other fluorescent substances which are not involved in the reaction can be corrected out.
3 μl of a standard solution or of the test substances (substances with the name A(n)) in individual concentrations dissolved in 20 mM Hepes pH 7.2 with a maximum of 11% of DMSO are pre-incubated together with 20 μl (19 ng) of highly purified recombinant autotaxin in test buffer in a black microtitre plate provided with 384 wells at 22° C. for 30 min. The reaction is then initiated by addition of 10 μl of L-α-lysophosphatidylcholine (LPC), where the final concentration of LPC is 75 μM. The mixture is incubated at 37° C. for 90 min. After the incubation, Amplex Red reagent, peroxidase (horseradish peroxidase) and choline oxidase is added, and the fluorescence is immediately measured at 612 nm with excitation of 485 nm in a “Tecan Ultra multimode” reader. The activity of autotaxin is calculated indirectly via detection of the H2O2 formed.
• Microtitre plate: PS microplate, 384 wells, small volume, black Corning, Cat#3677 • Protein: recombinant autotaxin (Baculovirale Hi5 Expression) • Substrate: L-α-lysophosphatidylcholine (chicken egg)); Avanti Polar Lipids #830071 P • Standard: C14 LPA, Avanti Polar Lipids, Cat#857120P • Detection reagent: Amplex Red reagent; Invitrogen #A12222; 5 mg dissolved in 1.923 ml of DMSO peroxidase type VI-A (horseradish) from Sigma #P6782; 5 mg dissolved in 7.45 ml of test buffer, choline oxidase; Sigma # C5896; 50 U dissolved in 2.47 ml of test buffer • Detection reagent mix: 1:50 dilution of detection reagent in test buffer • Test buffer: 10 mM Tris HCl, Merck, Cat #1.08219, pH 8, 1 mM; CaCl2×2 H2O, Merck #1.02382

The structures appear in SMILES notation.

Turning to `CC(C)(C)CC(=O)N1CCN2C(=O)c3cc(-c4ccc(Cl)cc4F)ccc3NC(=O)C2C1` (stereo not drawn) [Compound 10, 7-(4-chloro-2-fluorophenyl)-2-(3,3-dimethylbutyryl)-1,3,4,11a-tetrahydro-2H,10H-2,4a,10-triazadibenzo[a,d]cycloheptene-5,11-dione], the remaining activity at 10 µM worked out at 1% and the IC50 lay within 100 to 1000 nM.
The corresponding values for `CC(C)(C)CC(=O)N1CCN2Cc3cc(-c4ccccc4F)ccc3NCC2C1` (stereo not drawn) [Compound 25, 1-[7-(2-fluorophenyl)-3,4,5,10,11,11a-hexahydro-1H-2,4-a,10-triazadibenzo[a,d]cyclohepten-2-yl]-3,3-dimethylbutan-1-one] are 53% and above 1000 nM.
The corresponding values for `CC(C)(C)CC(=O)N1CCN2Cc3cc(-c4ccccc4F)ccc3NC(=O)C2C1` (stereo not drawn) [Compound 26, 2-(3,3-dimethylbutyryl)-7-(2-fluorophenyl)-1,3,4,5,10,11a-hexahydro-2H-2,4-a,10-triazadibenzo[a,d]cyclohepten-11-one] are 73% and above 1000 nM.
The corresponding values for `O=C1Nc2ccc(-c3ccc(Cl)cc3)cc2C(=O)N2CCN(C(=O)OCc3ccccc3)CC12` (stereo not drawn) [Compound 40, Benzyl 7-(4-chlorophenyl)-5,11-dioxo-3,4,5,10,11,11a-hexahydro-1H-2,4a,10-triazadibenzo[a,d]cycloheptene-2-carboxylate] are 22% and above 1000 nM.
For the compound `O=C1Nc2ccc(-c3ccc(Cl)cc3F)cc2C(=O)N2CCN(C(=O)n3ccnc3)C[C@H]12` [Compound 41, (R)-7-(4-Chloro-2-fluorophenyl)-2-(imidazole-1-carbonyl)-1,3,4,11a-tetrahydro-2H,10H-2,4a,10-triazadibenzo[a,d]cycloheptene-5,11-dione], the remaining activity at 10 µM came to 48% and the IC50 was above 1000 nM.
Turning to `CC(C)(C)[C@H](NC1CCNCC1)C(=O)N1CCN[C@@H](C(=O)Nc2ccc(-c3ccc(Cl)cc3F)cc2C(=O)O)C1` [Compound 47, 4′-chloro-4-({(R)-4-[(S)-3,3-dimethyl-2-(piperidin-4-ylamino)-butyryl]piperazine-2-carbonyl}amino)-2′-fluorobiphenyl-3-carboxylic acid], the remaining activity at 10 µM stood at 8% and the concentration for half-maximal inhibition (IC50) was in the range of 100 to 1000 nM.
With `CC(C)(C)[C@H](NC1CCNCC1)C(=O)N1CCN2C(=O)c3cc(-c4ccc(Cl)cc4F)ccc3NC(=O)[C@H]2C1` [Compound 48, (R)-7-(4-Chloro-2-fluorophenyl)-2-[(S)-3,3-dimethyl-2-(piperidin-4-ylamino)butyryl]-1,3,4,11a-tetrahydro-2H,10H-2,4a,10-triazadibenzo[a,d]cycloheptene-5,11-dione], the remaining activity at 10 µM is 2% and the concentration for half-maximal inhibition (IC50) was 100 to 1000 nM.
`CC(C)(C)[C@H](O)C(=O)N1CCN2Cc3cc(-c4ccc(Cl)cc4)ccc3NC(=O)C2C1` (stereo partly drawn) [Compound 57, 7-(4-Chlorophenyl)-2-((S)-2-hydroxy-3,3-dimethylbutyryl)-1,3,4,5,10,11a-hexahydro-1H-2,4a,10-triazadibenzo[a,d]cyclohepten-11-one]: the remaining activity at 10 µM was 40% and the IC50 is above 1000 nM.
Regarding `O=C1Nc2ccc(-c3ccc(Cl)cc3)cc2C(=O)N2CCN(C(=O)[C@@H](O)c3ccccc3)C[C@H]12` [Compound A1, (R)-7-(4-Chlorophenyl)-2-((S)-2-hydroxy-2-phenylacetyl)-1,3,4,11a-tetrahydro-2H,10H-2,4a,10-triazadibenzo[a,d]cycloheptene-5,11-dione], the IC50 is above 1000 nM.
Consider `O=C1Nc2ccc(-c3cccs3)cc2C(=O)N2CCN(C(=O)[C@@H](O)c3ccccc3)C[C@H]12` [Compound A3, (R)-2-((S)-2-Hydroxy-2-phenylacetyl)-7-thiophen-2-yl-1,3,4,11a-tetrahydro-2H,10H-2,4a,10-triaza-dibenzo[a,d]cycloheptene-5,11-dione], for which the remaining activity at 10 µM was found to be 86%.
